Results from US20240426845A1, “METHOD FOR DETECTING A LIPIDATED PROTEIN VIA FLUORESCENCE RESONANCE ENERGY TRANSFER (FRET)” (Biogen MA Inc., priority 2021, published 2024).

How the values were obtained:
[1] = system: CCF-STTG1 astrocytoma cells (ApoE lipoprotein secretion); test: TR-FRET ApoE lipidation assay on media from CCF-STTG1 cells; type: cell-based; details: Homo sapiens, media from CCF-STTG cells, 48 hours incubation, europium-conjugated anti-ApoE antibody and DiD, n=3, read-out: EC50 (TR-FRET signal, ApoE lipidation)
Description: TR-FRET analysis was performed on an Envision plate reader (Perkin Elmer). The donor fluorophore (europium cryptate-conjugated antibody) was excited at 320 nm. A 40 μs delay occurred before measuring emission signals at 620 nm (donor fluorescence) and 665 nm wavelengths (DiD acceptor FRET signal) during a 400 μs window. Sample normalized FRET signal was determined by finding the ratio of the 665 nm emission to 620 nm emission.
(§1) To test whether the TR-FRET assay detects lipidated proteins secreted from cells, the TR-FRET assay was tested on concentrated media from cultures of CCF-STTG1 astrocytoma cells grown in the absence and presence of T0901317, a LXR transcription factor agonist that induces ApoE lipoprotein secretion. Samples of concentrated media were mixed with TR-FRET buffer, europium-conjugated anti-ApoE3 antibody and DiD, incubated at 37° C. for 20 hours, and then fluorescence was measured using an Envision plate reader. As a control, samples were analyzed by native-PAGE gels, a conventional method of detecting lipidated proteins.

[2] = system: CCF-STTG1 astrocytoma cells (ApoE lipoprotein secretion); test: native-PAGE gel of ApoE lipidation in conditioned media; type: cell-based; details: CCF-STTG1 cell media following culture with compound
Description: as §1

O=S(=O)(c1ccccc1)N(CC(F)(F)F)c1ccc(C(O)(C(F)(F)F)C(F)(F)F)cc1 [T0901317]
EC50 [1]: 50.2 nM | lipidated ApoE in cell media by native-PAGE [2]: dose-dependent accumulation of lipidated ApoE
